Here are results for eight molecules from patent US20190375778A1, “ADENOSINE DERIVATIVES FOR USE IN THE TREATMENT OF CANCER” (NuCana plc, priority 2016, published 2019).

In general, IC50 refers to the concentration that gives 50% inhibition.

Common to all, as to type: cell-based
For one data set, the system named is CTS cell line. Description: Intracellular 8-Cl-ATP/ATP by LC-MS/MS, CTS. The conditions noted are these: for difference in intracellular accumulation of 8-Cl-ATP on inhibiting hENT1: with NBTI. Here is the method: (§1) Cell lines with 3×10^6 cells/ml were used. Cells were treated with 1 μl of 20 μM of each 8-Cl-A, compound A, compound B and compound D and incubated for 2 hours at 37° C. with 5% CO2. After incubation, the cells were centrifuged (ambient, 1200 rpm, 5 minutes), the supernatant was removed, and the pellet was washed with lml of PBS and centrifuged (ambient, 1200 rpm, 5 minutes). The supernatant was removed, the pellet was reconstituted in 100 μl of PBS and 100 μl of 0.8M perchloric acid. This was then centrifuged (ambient, 1200 rpm, 5 minutes) and 180 μl of the supernatant was transferred to new tubes and stored at −80° C. until time of analysis.
(§2) For inhibitor studies the cell lines were treated in the same way as described above but before treatment with drugs, a number of inhibitors were added: • 1) Nitrobenzylthioinosine (NBTI) (Sigma-Aldrich, St. Louis, Mo.) inhibits hENT1. • 2) A-134974 dihydrochloride hydrate (Sigma-Aldrich, St. Louis, Mo.) inhibits adenosine kinase. • 3) EHNA hydrochloride (Sigma-Aldrich, St. Louis, Mo.) inhibits adenosine deaminase.
(§3) Cells were treated with 1 μl of 10 μM of each inhibitor and left for 5 minutes before adding the drug. The cells were then incubated for 2 hours at 37° C. with 5% CO2.
(§4) The analytes were resolved using an ultra-performance liquid chromatography system (Accela UPLC, Thermo Scientific, UK) equipped with a Biobasic A×5 μm, 50×2.1 mm column (Thermo Electron Corporation, Murrieta, Calif., USA) and mobile phase consisting of a mixture of 10 mM NH4Ac in ACN/H2O (30:70 v/v), pH6.0 (A), and 1 mM NH4Ac in ACN/H2O (30:70 v/v), pH10.5 (B). The mobile phase gradient was employed, comprising: buffer A=95% at 0-0.5 minutes, from 95 to 0% over 1.25 minutes, held at 0% for 1.75 minutes, from 0-95% over 0.1 minutes, ending with 95% for 2.9 minutes, all at a flow rate of 500 μl/min.
(§5) For compounds detection a triple stage quadrupole Vantage mass spectrometry system (Thermo Scientific, UK) equipped with an electrospray ion source was used. Samples were analysed in the Multiple Reaction Monitoring, negative ion modes at spray voltage 3000V.
(§6) The dose-response curves of cytotoxicity of the drugs was determined using non-linear regression analysis of percentage cell viability versus concentration and EC50 values were obtained. The intracellular assay was conducted in five repeats for each condition. Intracellular assay was determined using paired T test (two-tailed) analysis of 8-ChloroATP/ATP concentration and p values were obtained. Drug stability in human plasma was determined using two-way ANOVA analysis. For all the analysis, Prism Software program (GraphPad Software) was used.

In the next data set the test system is KG1a cell line. Description: Annexin V/propidium iodide cytotoxicity, KG1a unsorted. The settings on record: for LD50: Homo sapiens, KG-1a, Annexin V/propidium iodide, 72 hrs; for cytotoxic potency compared in words: KG1a, versus 8-chloroadenosine or other isomers (FIG. 1, FIG. 7). Here is the method:
A further comparative analysis of the toxicity of compounds in the KG1a cell line over an extended dose range was carried out, and the relative effect assessed of the compounds on the leukaemic stem cell compartment within the KG1a cell line, across the entire dose range. Thus, experimental tests were performed on certain compounds of the present invention to assess their ability to target cancer stem cells in a leukaemic cell line. The acute myeloid leukaemia (AML) cell line, KG1a, was employed to assess the relative effect of compounds on the stem cell compartment. The KG1a cell line was selected because it manifests a minor stem cell-like compartment with a distinct immunophenotype (Lin^−/CD34^+/CD38^−/CD123^+).
Cells of the KG1a cell line were maintained in RPMI medium (Invitrogen, Paisley, UK) supplemented with 100 units/ml penicillin, 100 μg/ml streptomycin and 20% foetal calf serum. Cells were subsequently aliquoted (10^5 cells/100 μl) into 96-well plates and were incubated at 37° C. in a humidified 5% carbon dioxide atmosphere for 72 hrs in the presence of nucleoside analogues and their respective nucleotide analogues (known as ProTides) at concentrations that were experimentally determined for each series of compounds. In addition, control cultures were carried out to which no drug was added. Cells were subsequently harvested by centrifugation and were analyzed by flow cytometry using the Annexin V assay.
Cultured cells were harvested by centrifugation and then resuspended in 195 μl of calcium-rich buffer. Subsequently, 5 μl of Annexin V (Caltag Medsystems, Botolph Claydon, UK) was added to the cell suspension and cells were incubated in the dark for 10 mins prior to washing. Cells were finally resuspended in 190 μl of calcium-rich buffer together with 10 μl of propidium iodide. Apoptosis was assessed by dual-colour immunofluorescent flow cytometry as described previously. Subsequently LD50 values (the dose required to kill 50% of the cells in a culture) were calculated for each nucleoside analogue and ProTide.
The data obtained in these experiments were evaluated using one way ANOVA. All data was confirmed as Gaussian or a Gaussian approximation using the omnibus K2 test. LD50 values were calculated from the non-linear regression and line of best-fit analysis of the sigmoidal dose-response curves. All statistical analyses were performed using Graphpad Prism 6.0 software (Graphpad Software Inc., San Diego, Calif.).

The next data set concerns K-562 cell line. Description: Intracellular 8-Cl-ATP/ATP by LC-MS/MS, K-562. The conditions noted are these: for difference in intracellular accumulation of 8-Cl-ATP on inhibiting hENT1: K-562, with NBTI. As for the experimental part: as §1, §2, §3, §4, §5, §6
In another data set the test system is MCF7. Description: MTT cytotoxicity assay, MCF7. The conditions noted are these: Homo sapiens, 96 h compound exposure, read-out: absolute IC50, MCF7. From the text:
(§7) Lovo: cell line derived from a metastatic site in a patient with colon cancer MCF7: human oestrogen sensitive mammary epithelial cell line PC3: human prostate cancer cell line A549: cancerous lung tissue derived cells L1210: lymphoblast cell line derived from a mouse with lymphocytic leukaemia FM3A: mammary carcinoma murine cells CEM: human T-lymphoblasts, derived from the blood of a patient with acute lymphoblastic leukaemia HeLa: epithelial cells from a patient with cervical adenocarcinoma
(§8) Anti-tumour evaluation in MCF7, LoVo, A549 and PC3 cell lines was performed by MTT assay. Compounds were prepared as 0.1-100 mM stock solutions dissolved in DMSO and stored at −20° C. Cells were seeded into 96-well microtitre plates at a density of 5×10^3 cells per well and allowed 24 hours to adhere. Decimal compound dilutions were prepared in medium immediately prior to each assay (final concentration 0.1-100 μM). Experimental medium was DMEM+10% FCS (PC3 and Lovo) or RPMI+10% heat inactivated FCS (A549 and MCF7). Following 96 h compound exposure at 37° C., 5% CO2, MTT reagent (Sigma Aldrich) was added to each well (final concentration 0.5 mg/ml). Incubation at 37° C. for 4 h allowed reduction of MTT by viable cells to an insoluble formazan product. MTT was removed and formazan solubilised by addition of 10% Triton X-100 in PBS. Absorbance was read on a Tecan Sunrise spectrophotometer at 540 nm as a measure of cell viability; thus inhibition relative to control was determined (IC50).
(In general: Tetrazolium dyes change colour on reduction, which living cells bring about.)

Another data set has as its system PC3. Description: MTT cytotoxicity assay, PC3. The settings on record: Homo sapiens, PC-3, 96 h compound exposure, read-out: absolute IC50, PC3.
Text: as §7, §8

Consider `C[C@H](NP(=O)(OC[C@H]1O[C@@H](n2c(Cl)nc3c(N)ncnc32)C(O)C1O)Oc1cccc2ccccc12)C(=O)OCc1ccccc1` (stereo partly drawn) [Compound D, (2S)-Benzyl 2-(((((2R,3S,4R,5R)-5-(6-amino-8-chloro-9H-purin-9-yl)-3,4-dihydroxy-tetrahydrofuran-2-yl)methoxynaphthalene-1-yloxy)phosphoryl)amino)propanoate], for which the “difference in intracellular accumulation of 8-Cl-ATP on inhibiting hENT1” value (“difference … on inhibiting hENT1” below) with CTS cell line and with K-562 cell line was “did not produce significant difference” in each case. Moreover, the LD50 in the data set with KG1a cell line was 3.8 µM. Also, the “cytotoxic potency compared in words” value in the data set on KG1a cell line is reported as “significantly (P<0.0001) more cytotoxic”.
`C[C@H](NP(=O)(OC[C@H]1O[C@@H](n2c(Cl)nc3c(N)ncnc32)[C@H](O)[C@@H]1O)Oc1ccccc1)C(=O)OCc1ccccc1` (mixture of isomers) [C, (2S)-Benzyl 2-(((((2R,3S,4R,5R)-5-(6-amino-8-chloro-9H-purin-9-yl)-3,4-dihydroxy-tetrahydrofuran-2-yl)methoxy)(phenoxy)phosphoryl)amino)propanoate] returned an LD50 with KG1a cell line of 1.6 µM. Besides, the values for the IC50 in the data set on MCF7 and in the data set on PC3 were 15 to 100 µM and 0.1 to 5 µM, respectively.
As for `Nc1ncnc2c1nc(Cl)n2[C@@H]1O[C@H](COP(=O)(NCC(=O)OCc2ccccc2)Oc2ccccc2)[C@@H](O)[C@H]1O` (mixture of isomers) [Compound B, Benzyl 2-(((((2R,3S,4R,5R)-5-(6-amino-8-chloro-9H-purin-9-yl)-3,4-dihydroxytetra-hydrofuran-2-yl)methoxy)(phenoxy)phosphoryl)amino)acetate], the “difference in intracellular accumulation of 8-Cl-ATP on inhibiting adenosine kinase” value in the data set on CTS cell line (with A-134974) was “did not produce significant difference”. In addition, the “difference … on inhibiting hENT1” value in the data set with CTS cell line and in the data set on K-562 cell line was “did not produce significant difference” throughout. Further, in the data set on KG1a cell line, the LD50 was 7.1 µM. The IC50 with MCF7 was in the range of 15 to 100 µM; in the data set on PC3 it was 0.1 to 5 µM.
On to `Nc1ncnc2c1nc(Cl)n2[C@@H]1O[C@H](CO)[C@@H](O)[C@H]1O` [8-chloroadenosine, 8-Chloroadenosine, reference compound], for which the “8-Cl-ATP/ATP ratio after inhibiting adenosine kinase” value in the data set on CTS cell line (with A-134974) is “almost zero”; in the data set with K-562 cell line (K-562, with A-134974), “almost zero”. In addition, the IC50 with MCF7 and in the data set with PC3 was 0.1 to 5 µM in each case.
As to `Nc1ncnc2c1nc(Cl)n2[C@@H]1O[C@H](COP(=O)(NCC(=O)OC2CCCCC2)Oc2ccccc2)[C@@H](O)[C@H]1O` (mixture of isomers) [Compound A, Cyclohexyl 2-(((((2R,3S,4R,5R)-5-(6-amino-8-chloro-9H-purin-9-yl)-3,4-dihydroxy-tetrahydrofuran-2-yl)methoxy)(phenoxy)phosphoryl)amino)acetate], the “difference in intracellular accumulation of 8-Cl-ATP on inhibiting adenosine kinase” value in the data set with CTS cell line (with A-134974) is listed as “did not produce significant difference”. Further, the “difference … on inhibiting hENT1” value in the data set with CTS cell line and in the data set with K-562 cell line was “did not produce significant difference” each time. The “difference in 8-Cl-ATP concentration on inhibiting adenosine kinase” value with K-562 cell line (K-562, with A-134974) is “did not produce significant difference”. Also, the IC50 in the data set with MCF7 and in the data set with PC3 was 15 to 100 µM in each case.
For the molecule `CC(C)C[C@H](NP(=O)(OC[C@H]1O[C@@H](n2c(Cl)nc3c(N)ncnc32)C(O)C1O)Oc1ccccc1)C(=O)OCc1ccccc1` (stereo partly drawn) [V, 5′-([(Benzyloxy-L-leucin-N-yl)-phenyl]-phosphatyl) 8-chloroadenosine], the IC50 with MCF7 and in the data set on PC3 was 0.1 to 5 µM throughout.
`CCCCCOC(=O)[C@H](C)NP(=O)(OC[C@H]1O[C@@H](n2c(Cl)nc3c(N)ncnc32)C(O)C1O)Oc1cccc2ccccc12` (stereo partly drawn) [Compound E, (2S)-Pentyl 2-(((((2R,3S,4R,5R)-5-(6-amino-8-chloro-9H-purin-9-yl)-3,4-dihydroxy-tetrahydrofuran-2-yl)methoxnaphthalene-1-yloxy)phosphoryl)amino)propanoate]: in the data set with KG1a cell line, the LD50 was determined as 20 µM and the “cytotoxic potency compared in words” value is “less potent than 8-chloroadenosine”.
Take `Nc1ncnc2c1nc(Cl)n2[C@@H]1O[C@H](COP(=O)(NCC(=O)OCc2ccccc2)NCC(=O)OCc2ccccc2)C(O)C1O` (stereo partly shown) [Compound AC, 8-Chloroadenosine 5′-O-bis(benzyloxy-glycin-N-yl) phosphate]: the “cytotoxic potency compared in words” value in the data set on KG1a cell line was “not as cytotoxic as Isomer A of Compound B”.
